From patent US7700584B2 (Hangzhou Minsheng Pharmaceuticals Co., Ltd., priority 2004, dated 2010)

What was measured:
[1] = test system: A-549 human lung adenocarcinoma; assay: In vitro inhibition rate to tumor cells (MTT), A-549; assay type: cell-based; settings: 50 μg/ml
Procedure: (§1) (1) Single cell suspension was seeded into 96-well plates (×3) (the cells was diluted in the PRMI-1640 minimum medium to 3×10^4 cells/ml, […] diluted cells/well). […] The experiments were performed in quadruplicate.
(§2) (2) The medium was removed. Solutions of the anti-tumor agents (15 compounds) were prepared in a freshly prepared medium at the concentrations indicated in the following Table. […] of the solution was added into each well. Incubation was continued for 48 hours.
(§3) (3) […] of 2 mg/ml MTT was added into each well, and incubated for 4 hours.
(§4) (4) The medium was removed from the well. The microplates were swiftly turned down to throw-off the medium. […] DMSO was added into each well, and vortexed at room temperature for 10 minutes.
(§5) (5) OD value (λ=570 nm) was measured with an Enzyme-Linked Detector.
(§6) (6) The inhibition rates (IR) of cell growth were respectively calculated based on the following equation: IR(%)=[1−(average OD of the experimental group/average OD of the control group)]×100%

[2] = test system: Hela human cervical carcinoma; assay: In vitro inhibition rate to tumor cells (MTT), Hela; assay type: cell-based; settings: 50 μg/ml
Procedure: as §1, §2, §3, §4, §5, §6

[3] = test system: SMMC-7721 human hepatic carcinoma; assay: In vitro inhibition rate to tumor cells (MTT), SMMC-7721; assay type: cell-based; settings: 50 μg/ml
Procedure: as §1, §2, §3, §4, §5, §6

[4] = test system: Bel-7402 human hepatic carcinoma; assay: In vitro inhibition rate to tumor cells (MTT), Bel-7402; assay type: cell-based; settings: 50 μg/ml
Procedure: as §1, §2, §3, §4, §5, §6

[5] = test system: HL-60 human promyelocytic leukemia; assay: In vitro inhibition rate to tumor cells (MTT), HL-60; assay type: cell-based; settings: 50 μg/ml
Procedure: as §1, §2, §3, §4, §5, §6

[6] = test system: U-937 human histocytic lymphoma; assay: In vitro inhibition rate to tumor cells (MTT), U-937; assay type: cell-based; settings: 50 μg/ml
Procedure: as §1, §2, §3, §4, §5, §6

[7] = test system: MCF-7 human mammary adenocarcinoma; assay: In vitro inhibition rate to tumor cells (MTT), MCF-7; assay type: cell-based; settings: 50 μg/ml
Procedure: as §1, §2, §3, §4, §5, §6

[8] = test system: LLC mouse Lewis lung carcinoma; assay: In vitro inhibition rate to tumor cells (MTT), LLC; assay type: cell-based; settings: 50 μg/ml
Procedure: as §1, §2, §3, §4, §5, §6

[9] = target: T1, HIV-1 proteinase (HIV-1 PR) (Human immunodeficiency virus type 1 group M subtype B, UniProt P04585); assay: Screening for in vitro activity against HIV-1 proteinase; assay type: biochemical; settings: read-out: Inhibition rate, 10 nM
T1 construct: HIV-1 proteinase digests the fluorescent-labeled substrate; purchased
Procedure: Principle of the test: HIV-1 proteinase digests the fluorescent-labeled substrate in an optimal reaction condition and system. The activity of the enzyme can be reflected by the fluorescent intensity in the product of the enzyme reaction. Adding a sample into the reaction system can be used for screening the inhibitor of the enzyme.
1. HIV-1 PR: commercially available, stored at −85° C.
2. Treatment of the samples: Before use, sample was dissolved in DMSO at a suitable concentration, then serially diluted (5×) with double distilled water, five serial dilutions per sample.
3. Positive control: indinavir, purchased from […].
4. Methods: The diluted sample was added into the reaction buffer containing the fluorescent-labeled substrate. Then the genetic engineered target enzyme was added, and incubated in the optimal reaction condition. The fluorescent value was measured with a FLUO star Galaxy luminoscope.

| Structure (SMILES) | inhibition rate, Results (%) A-549 ([1]; Table 1) [%] | inhibition rate, Results (%) A-549 ([1]; Table 2 (repeated screening)) [%] | inhibition rate, Results (%) Hela ([2]; Table 1) [%] | inhibition rate, Results (%) Hela ([2]; Table 2 (repeated screening)) [%] | inhibition rate, Results (%) SMMC-7721 ([3]; Table 1) [%] | inhibition rate, Results (%) SMMC-7721 ([3]; Table 2 (repeated screening)) [%] | inhibition rate, Results (%) Bel-7402 ([4]; Table 1) [%] | inhibition rate, Results (%) Bel-7402 ([4]; Table 2 (repeated screening)) [%] | inhibition rate, Results (%) HL-60 ([5]; Table 1) [%] | inhibition rate, Results (%) HL-60 ([5]; Table 2 (repeated screening)) [%] | inhibition rate, Results (%) U-937 ([6]; Table 1) [%] | inhibition rate, Results (%) U-937 ([6]; Table 2 (repeated screening)) [%] | inhibition rate, Results (%) MCF-7 ([7]; Table 1) [%] | inhibition rate, Results (%) MCF-7 ([7]; Table 2 (repeated screening)) [%] | inhibition rate, Results (%) LLC ([8]; Table 1) [%] | inhibition rate, Results (%) LLC ([8]; Table 2 (repeated screening)) [%] | inhibition at 0.01 µM [9] [%] |
| --- | --- | --- | --- | --- | --- | --- | --- | --- | --- | --- | --- | --- | --- | --- | --- | --- | --- |
| CC(C)C1CC23OC1(O)CC(C)(Br)C2CCC3C (stereo not shown) [Compound 34, Curcumol monobromide without double bond] | 2.31 | 9.23 | 50.64 | 51.89 | −5.25 | 0.95 | 1.11 | 0.59 | 2.96 | 3.14 | 35.23 | 23.56 | 1.23 | 4.56 | −18.52 | −11.22 | – |
| CC(C)C1CC23OC1(O)CC(C)(O)C2CCC3C (stereo not shown) [Compound 35, Curcumol monohydroxy compound without double bond] | 3.89 | 2.77 | 59.88 | 64.01 | 5.23 | 4.32 | 3.65 | 6.78 | 3.12 | 3.99 | 7.36 | 0.23 | 3.89 | 9.87 | 8.97 | 8.23 | – |
| CC(C)C1CC23OC1(O)CC(C)(O[N+](=O)[O-])C2CCC3C (stereo not shown) [Compound 36, Curcumol mononitrate without double bond] | 9.21 | 1.20 | 62.13 | 65.23 | 15.39 | 14.08 | 0.22 | 0.02 | 1.03 | 2.01 | 6.98 | 5.32 | −1.23 | −2.31 | 11.56 | 11.56 | – |
| CC(C)C1CC23OC1(O)CC(CN1CCNCC1)(N1CCNCC1)C2CCC3C (stereo not shown) [Compound 41, Curcumol bispiperazine] | −2.50 | −7.89 | 50.32 | 51.23 | 4.42 | 3.12 | 16.78 | 1.23 | 6.78 | 1.86 | 8.65 | −1.02 | 36.45 | 31.28 | 30.96 | 23.65 | – |
| CC(C)C1CC23OC1(O)CC(CN1CCNCC1)(N1CCNCC1)C2CCC3C.Cl (stereo not shown) [Compound 42, Curcumol bispiperazine hydrochloride] | 10.16 | 3.12 | 55.64 | 54.03 | 6.86 | 0.79 | 2.15 | 14.36 | 2.73 | 3.14 | −12.5 | −1.03 | 34.21 | 30.12 | 9.99 | 1.79 | – |
| CC(C)C1CC23OC1(O)CC(C)(N1CCNCC1)C2CCC3C.Cl (stereo not shown) [Compound 44, Curcumol piperazine hydrochloride without double bond] | 23.01 | 20.33 | 55.14 | 50.01 | −10.53 | −7.89 | −6.54 | 0.23 | 3.71 | 5.37 | 35.64 | 23.56 | 25.55 | 24.11 | 23.35 | 17.565 | – |
| CCCCNC1(C)CC2(OC)OC3(CC2C(C)C)C(C)CCC13 (stereo not shown) [Compound 45, Curcumol methyl ether n-butyl amine without double bond] | 2.10 | 0.32 | 59.45 | 53.12 | −10.73 | −11.23 | 3.01 | 5.02 | 6.14 | 1.23 | 32.19 | 12.32 | 26.78 | 20.73 | 2.74 | 1.32 | – |
| CCCCNC1(C)CC2(OC)OC3(CC2C(C)C)C(C)CCC13.Cl (stereo not shown) [Compound 46, Curcumol methyl ether n-butyl amine hydrochloride without double bond] | 3.12 | 3.78 | 53.12 | 49.56 | −0.86 | −0.45 | 4.55 | 4.65 | −2.60 | −4.56 | 16.32 | 8.65 | 19.88 | 14.98 | −12.99 | −17.56 | – |
| CC(=O)OC12CC(=O)C3CCC(C)C3(CC1C(C)C)O2 (stereo not shown) [Compound 49, Curzerenone acetate] | 5.36 | 4.23 | 79.8 | 75.65 | −11.3 | −1.78 | 2.69 | 14.02 | 55.35 | 57.89 | 78.65 | 75.23 | 0.65 | 1.56 | −0.15 | 0.12 | – |
| CC(C)(C)NC(=O)[C@@H]1CN(Cc2cccnc2)CCN1C[C@@H](O)C[C@@H](Cc1ccccc1)C(=O)N[C@H]1c2ccccc2C[C@H]1O [indinavir] | – | – | – | – | – | – | – | – | – | – | – | – | – | – | – | – | 92.1 |
